Test results reported in PubChem BioAssay (NCI).
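Cells were grown in 96-well plates and exposed to each compound for 48 hours at five concentrations; endpoints were interpolated linearly between bracketing concentrations, or set to the highest concentration if not reached. At the GI50, growth is halved. Definition used: TGI = concentration required for complete inhibition of growth.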

How the values were obtained:
Test in all cases: growth of human tumour cells (NCI), 48 h
[1] = test system: 786-0 renal
[2] = test system: A498 renal
[3] = test system: A549 NSCLC
[4] = test system: ACHN renal
[5] = test system: CAKI-1 renal
[6] = test system: CCRF-CEM leukemia
[7] = test system: COLO 205 colon
[8] = test system: DLD-1 colon
[9] = test system: DMS 273 small cell lung
[10] = test system: EKVX NSCLC
[11] = test system: HCC-2998 colon
[12] = test system: HCT-116 colon
[13] = test system: HCT-15 colon
[14] = test system: HL-60(TB) leukemia
[15] = test system: HOP-18 NSCLC
[16] = test system: HOP-62 NSCLC
[17] = test system: HT29 colon
[18] = test system: IGROV1 ovarian
[19] = test system: K-562 leukemia
[20] = test system: KM12 colon
[21] = test system: KM20L2 colon
[22] = test system: LOX IMVI melanoma
[23] = test system: LXFL 529 NSCLC
[24] = test system: M14 melanoma
[25] = test system: M19-MEL melanoma
[26] = test system: MALME-3M melanoma
[27] = test system: MOLT-4 leukemia
[28] = test system: NCI-H226 lung
[29] = test system: NCI-H23 lung
[30] = test system: NCI-H460 lung
[31] = test system: NCI-H522 lung
[32] = test system: OVCAR-3 ovarian
[33] = test system: OVCAR-4 ovarian
[34] = test system: OVCAR-5 ovarian
[35] = test system: OVCAR-8 ovarian
[36] = test system: RPMI-8226 leukemia
[37] = test system: RXF 393 renal
[38] = test system: SF-268 CNS
[39] = test system: SF-295 CNS
[40] = test system: SF-539 CNS
[41] = test system: SK-MEL-2 melanoma
[42] = test system: SK-MEL-28 melanoma
[43] = test system: SK-MEL-5 melanoma
[44] = test system: SK-OV-3 ovarian
[45] = test system: SN12C renal
[46] = test system: SNB-19 CNS
[47] = test system: SNB-75 CNS
[48] = test system: SNB-78 CNS
[49] = test system: SW-620 colon
[50] = test system: TK-10 renal
[51] = test system: U251 CNS
[52] = test system: UACC-257 melanoma
[53] = test system: UACC-62 melanoma
[54] = test system: UO-31 renal
[55] = test system: DMS 114 small cell lung
[56] = test system: HOP-92 NSCLC
[57] = test system: SR leukemia

Structure (SMILES): NC1CCCCC1N.O=C([O-])c1cc(S(=O)(=O)Nc2cc(S(=O)(=O)[O-])cc3cc(S(=O)(=O)[O-])cc(O)c23)ccc1[O-].[Pt+4]
- GI50 [1]: > 100 µM
- TGI [1]: > 100 µM
- GI50 [2]: > 100 µM
- TGI [2]: > 100 µM
- GI50 [3]: 61.6 µM
- TGI [3]: > 100 µM
- GI50 [4]: > 100 µM
- TGI [4]: > 100 µM
- GI50 [5]: > 100 µM
- TGI [5]: > 100 µM
- GI50 [6]: > 100 µM
- TGI [6]: > 100 µM
- GI50 [7]: > 100 µM
- TGI [7]: > 100 µM
- GI50 [8]: > 100 µM
- TGI [8]: > 100 µM
- GI50 [9]: > 100 µM
- TGI [9]: > 100 µM
- GI50 [10]: > 100 µM
- TGI [10]: > 100 µM
- GI50 [11]: > 100 µM
- TGI [11]: > 100 µM
- GI50 [12]: > 100 µM
- TGI [12]: > 100 µM
- GI50 [13]: > 100 µM
- TGI [13]: > 100 µM
- GI50 [14]: 89.8 µM
- TGI [14]: > 100 µM
- GI50 [15]: > 100 µM
- TGI [15]: > 100 µM
- GI50 [16]: > 100 µM
- TGI [16]: > 100 µM
- GI50 [17]: > 100 µM
- TGI [17]: > 100 µM
- GI50 [18]: > 100 µM
- TGI [18]: > 100 µM
- GI50 [19]: > 100 µM
- TGI [19]: > 100 µM
- GI50 [20]: > 100 µM
- TGI [20]: > 100 µM
- GI50 [21]: > 100 µM
- TGI [21]: > 100 µM
- GI50 [22]: > 100 µM
- TGI [22]: > 100 µM
- GI50 [23]: > 100 µM
- TGI [23]: > 100 µM
- GI50 [24]: > 100 µM
- TGI [24]: > 100 µM
- GI50 [25]: > 100 µM
- TGI [25]: > 100 µM
- GI50 [26]: 63.5 µM
- TGI [26]: > 100 µM
- GI50 [27]: > 100 µM
- TGI [27]: > 100 µM
- GI50 [28]: > 100 µM
- TGI [28]: > 100 µM
- GI50 [29]: > 100 µM
- TGI [29]: > 100 µM
- GI50 [30]: 41.8 µM
- TGI [30]: > 100 µM
- GI50 [31]: > 100 µM
- TGI [31]: > 100 µM
- GI50 [32]: > 100 µM
- TGI [32]: > 100 µM
- GI50 [33]: > 100 µM
- TGI [33]: > 100 µM
- GI50 [34]: > 100 µM
- TGI [34]: > 100 µM
- GI50 [35]: > 100 µM
- TGI [35]: > 100 µM
- GI50 [36]: 89.5 µM
- TGI [36]: > 100 µM
- GI50 [37]: > 100 µM
- TGI [37]: > 100 µM
- GI50 [38]: > 100 µM
- TGI [38]: > 100 µM
- GI50 [39]: > 100 µM
- TGI [39]: > 100 µM
- GI50 [40]: > 100 µM
- TGI [40]: > 100 µM
- GI50 [41]: > 100 µM
- TGI [41]: > 100 µM
- GI50 [42]: > 100 µM
- TGI [42]: > 100 µM
- GI50 [43]: 88.7 µM
- TGI [43]: > 100 µM
- GI50 [44]: > 100 µM
- TGI [44]: > 100 µM
- GI50 [45]: > 100 µM
- TGI [45]: > 100 µM
- GI50 [46]: > 100 µM
- TGI [46]: > 100 µM
- GI50 [47]: > 100 µM
- TGI [47]: > 100 µM
- GI50 [48]: > 100 µM
- TGI [48]: > 100 µM
- GI50 [49]: > 100 µM
- TGI [49]: > 100 µM
- GI50 [50]: > 100 µM
- TGI [50]: > 100 µM
- GI50 [51]: > 100 µM
- TGI [51]: > 100 µM
- GI50 [52]: > 100 µM
- TGI [52]: > 100 µM
- GI50 [53]: > 100 µM
- TGI [53]: > 100 µM
- GI50 [54]: > 100 µM
- TGI [54]: > 100 µM

Structure (SMILES): CN=c1ss/c(=N\C(=S)N(C)C)n1-c1ccccc1
- TGI [1]: > 100 µM
- TGI [2]: > 100 µM
- TGI [3]: > 100 µM
- TGI [4]: > 100 µM
- TGI [5]: > 100 µM
- TGI [6]: > 100 µM
- TGI [7]: > 100 µM
- TGI [8]: > 100 µM
- TGI [55]: > 100 µM
- TGI [9]: > 100 µM
- TGI [10]: > 100 µM
- TGI [11]: > 100 µM
- TGI [12]: > 100 µM
- TGI [13]: > 100 µM
- TGI [14]: > 100 µM
- TGI [15]: > 100 µM
- TGI [16]: > 100 µM
- TGI [56]: > 100 µM
- TGI [17]: > 31.6 µM
- TGI [18]: > 100 µM
- TGI [19]: > 100 µM
- TGI [20]: > 100 µM
- TGI [21]: > 100 µM
- TGI [22]: > 100 µM
- TGI [23]: > 100 µM
- TGI [24]: > 100 µM
- TGI [25]: > 100 µM
- TGI [26]: > 100 µM
- TGI [27]: > 100 µM
- TGI [28]: > 100 µM
- TGI [29]: > 100 µM
- TGI [30]: > 100 µM
- TGI [31]: > 28.5 µM
- TGI [32]: > 100 µM
- TGI [33]: > 100 µM
- TGI [34]: > 100 µM
- TGI [35]: > 100 µM
- TGI [36]: > 100 µM
- TGI [37]: > 82.1 µM
- TGI [38]: > 100 µM
- TGI [39]: > 100 µM
- TGI [40]: > 100 µM
- TGI [41]: > 100 µM
- TGI [42]: > 100 µM
- TGI [43]: > 100 µM
- TGI [44]: > 100 µM
- TGI [45]: > 100 µM
- TGI [46]: > 100 µM
- TGI [47]: 42.6 µM
- TGI [48]: > 100 µM
- TGI [57]: > 100 µM
- TGI [49]: > 100 µM
- TGI [50]: > 100 µM
- TGI [51]: > 100 µM
- TGI [52]: > 100 µM
- TGI [53]: > 100 µM
- TGI [54]: > 100 µM
